Key:
PS19-fE4 primary neurons = assay: Recombinant protein treatment of primary neurons, APOE sandwich ELISA of cell lysates; assay type: cell-based, mouse; settings: 10 μg/mL recombinant protein, 24 hours, day 14 in vitro
Procedure: (§1) Biochemically extracted mouse hippocampal tissue lysates were diluted in Milli-Q H2O to the appropriate concentration and were run according to the provided manufacturer protocols (human APOE (Abcam); mouse HMGB1 (Novus Biologicals). Reactions of samples were read on a SpectraMaX M5 spectrophotometer (Molecular Devices) and protein concentrations were determined after interpolating a standard curve and adjusting for dilutions.
(§2) Primary cultures of neurons were prepared from prenatal E20 pups of various genotypes. After collecting pup brains, the cortex plus hippocampus were isolated and placed in ice-cold dissociation media+kyneurenic acid media (DM/KY) (DM:Na2SO4 (81.8 mM); K2SO4 (30 mM); MgCl2 (5.8 mM), CaCl2) (0.25 mM); HEPES (1 mM); glucose (20 mM); phenol red (0.001%); NaOH (0.16 mM) in distilled H2O) (KY: kynurenic acid (10 mM); phenol red (0.0025%); HEPES (5 mM); MgCl2 (100 mM); NaOH (add dropwise until pH 7.4). The resulting DM/KY media was made by combining 90% DM with 10% KY media. The isolated tissue was finely minced and then submerged in pre-warmed Papain solution (1 mL per brain) for 13 minutes while gently inverting and then submerged in trypsin inhibitor solution for 5 minutes (5 mL for up to 10 brains) while gently inverting. The tissue pellet was washed with Optimem/Glucose solution (20 mM glucose, 1 mL per brain) while gently inverting. Then, fresh Optimem/Glucose solution was added and tissue was gently triturated until separated into single cells. After filtering the cells through a 40 um cell strainer, the dissociated cells were plated at 1×10^6 cells/well of a 12-well plate or 3×10^5 cells/well of a 24-well plate in Neurobasal medium supplemented with B27, 100 U/mL^−1 of penicillin G, 100 µg/mL^−1 of streptomycin, and 1% GlutaMAX (B27/Neurobasal). Every 3-4 days, half of the media was removed and replaced with fresh B27/Neurobasal media. In some experiments, primary neurons were treated with either a Dulbecco's PBS (dPBS) vehicle or a recombinant protein of interest (10 μg/mL for one well of a 12-well plate) for 24 hours at day 14 in vitro. […]
(§3) The inventors hypothesized that astrocytic APOE4 may regulate neuronal APOE4 expression by promoting the release of these factors that activate the neuronal ERK pathway, leading to increased neuronal APOE4 expression. […] The APOE protein levels were then quantitatively evaluated in the primary neuronal cell lysates by sandwich ELISA.
(§4) Experiments were also performed to determine whether HMGB1 is a potential modulatory factor of neuronal APOE4 expression. As such, primary neurons isolated from PS19-fE4/GFAP-Cre and PS19-fE4 mice were treated with 10 μg/mL of recombinant HMGB1 protein or a dPBS control and the APOE protein levels were quantitatively evaluated in cell lysates by sandwich ELISA.

[1] = tested on: PS19-fE4/GFAP-Cre primary neurons; assay: as above; assay type: cell-based, mouse; settings: 10 μg/mL recombinant protein, 24 hours, day 14 in vitro
Procedure: as §1, §2, §3, §4

## DPP10: recombinant DPP10 protein used to treat primary neurons
PS19-fE4 primary neurons
  APOE protein levels in cell lysates vs dPBS control: no significant difference in APOE levels
[1]
  increase in APOE protein levels relative to the dPBS control: 98%

B1: HMGB1: recombinant HMGB1 protein used to treat primary neurons (protein, listed as Homo sapiens)
chain: MGKGDPKKPRGKMSSYAFFVQTCREEHKKKHPDASVNFSEFSKKCSERWKTMSAKEKGKFEDMAKADKARYEREMKTYIPPKGETKKKFKDPNAPKRPPSAFFLFCSEYRPKIKGEHPGLSIGDVAKKLGEMWNNTAADDKQPYEKKAAKLKEKYEKDIAAYRAKGKPDAAKKGVVKAEKSKKKKEEEEDEEDEEDEEEEEDEEDEDEEEDDDDE
PS19-fE4 primary neurons
  APOE protein levels in cell lysates vs dPBS control: A significant difference was not observed
[1]
  APOE protein levels in cell lysates vs dPBS control: A significant difference was not observed

From US20250262230A1, “HMGB1 Inhibitors for Treatment of APOE4-related Tauopathies including Alzheimer’s Disease” (The J. David Gladstone Institutes, a testamentary trust …, priority 2022, published 2025)
